The assay has as its target T1, hSFRP-1 (Homo sapiens, UniProt Q8N474).
T1 construct: expressed in transfected cells; host or cells: U2OS osteosarcoma cells (ATCC, HTB 96), transient co-transfection with Wnt 3, Wnt3A or Wnt 1, 16x TCF-tk-Luciferase reporter and CMV-beta-gal
T1 sequence (Q8N474 32-314): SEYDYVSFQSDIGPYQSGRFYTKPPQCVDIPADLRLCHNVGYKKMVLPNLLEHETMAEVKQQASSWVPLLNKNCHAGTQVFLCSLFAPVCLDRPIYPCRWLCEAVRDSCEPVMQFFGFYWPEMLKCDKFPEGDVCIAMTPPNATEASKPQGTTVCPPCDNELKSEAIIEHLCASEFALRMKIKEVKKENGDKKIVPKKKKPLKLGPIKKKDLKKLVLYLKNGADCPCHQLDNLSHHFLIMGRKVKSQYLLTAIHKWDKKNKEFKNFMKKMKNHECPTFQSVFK
Briefly: Cell-Based Assay for In Vitro Measurement of SFRP-1/SARP2 Antagonist Activity (U2OS cells, 16x TCF-tk-Luciferase reporter, Wnt + hSFRP-1 co-transfection). The conditions noted are these: initial single dose screening at 10 μM; for fold induction at 10 µM: luciferase reporter activity, fold induction over SFRP-1 control; for Ratio: ratio not defined. On the procedure:
Cell-Based Assay for In Vitro Measurement of SFRP-1/SARP2 Antagonist Activity
The following cell-based assay can be used to identify inhibitors of SFRP-1.
The osteosarcoma cell line, U2OS (ATCC, HTB 96), was passaged twice a week with growth medium (McCoy's SA medium containing 10% (v/v) fetal calf serum, 2 mM GlutaMAX-1, and 1% (v/v) Penicillin-Streptomycin). The cells were maintained in vented flasks at 37° C. inside a 5% CO2/95% humidified air incubator. One day prior to transfection, the cells were plated with growth medium at 25,000 cells/well into 96-well plates and incubated at 37° C. overnight.
The growth medium was removed, and the cells were washed once with OPTIMEM I (Gibco-BRL) medium (100 μl/well) to remove the serum and antibiotics. The wash medium was removed, and the cells were re-fed with OPTI-MEM I medium (100 μl/well). For each well of cells to be transfected, the following DNA's were diluted together in 25 μl OPTI-MEM I medium: 0.1 μg 16× TCF-tk-Luciferase reporter, 0.02 μg Wnt 3, Wnt3A, Wnt 1 or empty vector (Upstate Biotechnology), 0.075 μg hSFRP-1 or empty vector (pcDNA3.1, Invitrogen), and 0.025 μg CMV-®gal (Clonetech). For each well of cells to be transfected, 1 μl of Lipofectamine 2000 reagent (Invitrogen) was diluted in 25 μl OPTI-MEM I medium and incubated at room temperature for 5 minutes. The diluted DNA's were then combined with the diluted Lipofectamine 2000 (LF2000), and the mixture was incubated at room temperature for 20 minutes. Fifty μl of the DNA-LF 2000 mixture was added to each well, and the plate(s) were incubated at 37° C. in a 5% CO2/95% humidified air incubator for 4 hours. The cells were washed once with 150 μl/well of experimental medium (phenol red-free RPMI Medium 1640 containing 2% fetal bovine serum, 2 mM GlutaMAX-1, and 1% Penicillin-Streptomycin). Finally, the cells were treated overnight at 37° C. with 200 μl/well of experimental medium containing either vehicle (typically DMSO) or diluted compound in replicates of 8 wells/compound.
Initial single dose screening of test compounds was done at 10 μM.
Dose-response experiments were initially performed with the compounds in log increases from 1-10,000 nM. From these dose-response curves, EC50 values were generated.
After treatment, the cells were washed twice with 150 μl/well of PBS without calcium or magnesium and were lysed with 50 μl/well of 1× cell culture lysis reagent (Promega Corporation) on a shaker at room temperature for 30 minutes. Thirty μl aliquots of the cell lysates were transferred to 96-well luminometer plates, and luciferase activity was measured in a MicroLumat PLUS luminometer (EG&G Berthold), or a Victor (PerkinElmer Life Sciences) using […] of luciferase substrate (Promega Corporation). Following the injection of substrate, luciferase activity was measured for 10 seconds after a 1.6 second delay. Similarly, 10 μl aliquots of the cell lysates were transferred to separate 96-well luminometer plates, and 50 μl of Galacton chemiluminescent substrate (Tropix) was added to each well. The plates were covered and incubated on a rotary shaker at room temperature for one hour. ®gal activity was measured in a MicroLumat PLUS luminometer or Victor using 100 μl/well of Light Emission Accelerator (Tropix). Following the injection of the accelerator, ®gal activity was measured for 10 seconds after a 1.6 second delay. The luciferase and ®gal activity data were transferred from the luminometer to a PC and analyzed using the SAS/Excel program. After the luciferase activity was normalized to ®gal, the SAS/Excel program was used to determine the mean and standard deviation of each treatment, to analyze the data for statistical significance, and to determine EC50 values.
As an alternative to co-transfection in a 96 well plate, the U2OS cells were transfected in T225 flasks and the transfected cells were frozen. The frozen cells were thawed and plated on a 96 well plate and the assay was carried out as detailed above. […]
Background: In a reporter assay the amount or activity of a reporter protein is the signal.

What is called fold induction is the ratio of treated to control signal. Consider `CCOC(=O)c1c(NC(=O)CC2SC(N)=NC2=O)sc(C)c1C` (stereo not shown) [Example 1, Ethyl 2-{[(2-amino-4-oxo-4,5-dihydro-1,3-thiazol-5-yl)acetyl]amino}-4,5-dimethylthiophene-3-carboxylate], for which the fold induction at 10 µM is 2.5 and the Ratio stood at 2.5.
Take `N=C1NC(=O)C(CC(=O)Nc2cccc(Br)c2)S1` (stereo not shown) [Example 2, N-(3-bromophenyl)-2-(2-imino-4-oxo-1,3-thiazolidin-5-yl)acetamide]: the fold induction at 10 µM stood at 2 and the Ratio is recorded as 1.8.
The corresponding values for `N=C1NC(=O)C(CC(=O)Nc2cccc(F)c2)S1` (stereo not shown) [Example 3, N-(3-fluorophenyl)-2-(2-imino-4-oxo-1,3-thiazolidin-5-yl)acetamide] are 1.5 and 1.3.
In the case of `N#Cc1cccc(NC(=O)CC2SC(=N)NC2=O)c1` (stereo not shown) [Example 4, N-(3-cyanophenyl)-2-(2-imino-4-oxo-1,3-thiazolidin-5-yl)acetamide], the fold induction at 10 µM was found to be 1.3 and the Ratio is 1.2.
The corresponding values for `CC(=O)Nc1cccc(NC(=O)CC2SC(=N)NC2=O)c1` (stereo not shown) [Example 5, N-[3-(acetylamino)phenyl]-2-(2-imino-4-oxo-1,3-thiazolidin-5-yl)acetamide] are 1.3 and 1.2.
For the compound `N=C1NC(=O)C(CC(=O)Nc2ccc(Cl)c(Cl)c2)S1` (stereo not shown) [Example 6, N-(3,4-dichlorophenyl)-2-(2-imino-4-oxo-1,3-thiazolidin-5-yl)acetamide], the fold induction at 10 µM amounted to 1.7 and the Ratio was 1.7.
For `N=C1NC(=O)C(CC(=O)Nc2ccc(Cl)cc2Cl)S1` (stereo not shown) [Example 7, N-(2,4-dichlorophenyl)-2-(2-imino-4-oxo-1,3-thiazolidin-5-yl)acetamide], the fold induction at 10 µM turned out to be 1 and the Ratio was 1.0.
For `N=C1NC(=O)C(CC(=O)Nc2cccc(F)c2F)S1` (stereo not shown) [Example 8, N-(2,3-difluorophenyl)-2-(2-imino-4-oxo-1,3-thiazolidin-5-yl)acetamide] the same measures were 1.1 and 1.0.
The corresponding values for `N=C1NC(=O)C(CC(=O)Nc2ccc(F)c(F)c2)S1` (stereo not shown) [Example 9, N-(3,4-difluorophenyl)-2-(2-imino-4-oxo-1,3-thiazolidin-5-yl)acetamide] are 1.6 and 1.5.
For `N=C1NC(=O)C(CC(=O)Nc2cccc(Cl)c2)S1` (stereo not shown) [Example 10, N-(3-chlorophenyl)-2-(2-imino-4-oxo-1,3-thiazolidin-5-yl)acetamide] the same measures were 2.2 and 2.2.
With `N=C1NC(=O)C(CC(=O)Nc2ccc(F)c(Cl)c2)S1` (stereo not shown) [Example 11, N-(3-chloro-4-fluorophenyl)-2-(2-imino-4-oxo-1,3-thiazolidin-5-yl)acetamide], the fold induction at 10 µM turned out to be 1.9 and the Ratio is reported as 1.7.
The corresponding values for `N=C1NC(=O)C(CC(=O)NCc2ccc(C(F)(F)F)cc2)S1` (stereo not shown) [Example 12, 2-(2-imino-4-oxo-1,3-thiazolidin-5-yl)-N-[4-(trifluoromethyl)benzyl]acetamide] are 1.1 and 1.0.
Consider `Cc1cc(NC(=O)CC2SC(=N)NC2=O)on1` (stereo not shown) [Example 13, 2-(2-imino-4-oxo-1,3-thiazolidin-5-yl)-N-(3-methylisoxazol-5-yl)acetamide], for which the fold induction at 10 µM is 1 and the Ratio was determined as 1.0.
For `C#Cc1cccc(NC(=O)CC2SC(=N)NC2=O)c1` (stereo not shown) [Example 14, N-(3-ethynylphenyl)-2-(2-imino-4-oxo-1,3-thiazolidin-5-yl)acetamide], the fold induction at 10 µM was 1.8 and the Ratio was 1.6.
For `CSc1cccc(NC(=O)CC2SC(=N)NC2=O)c1` (stereo not shown) [Example 15, 2-(2-imino-4-oxo-1,3-thiazolidin-5-yl)-N-[3-(methylthio)phenyl]acetamide] the same measures were 1.5 and 1.2.
For `CCOC(=O)c1c(C)csc1NC(=O)CC1SC(=N)NC1=O` (stereo not shown) [Example 16, ethyl 2-{[(2-imino-4-oxo-1,3-thiazolidin-5-yl)acetyl]amino}-4-methylthiophene-3-carboxylate] the same measures were 2 and 1.9.
The corresponding values for `N=C1NC(=O)C(CC(=O)Nc2ccccc2)S1` (stereo not shown) [Example 17, 2-(2-imino-4-oxo-1,3-thiazolidin-5-yl)-N-phenylacetamide] are 1.3 and 1.0.
As for `N=C1NC(=O)C(CC(=O)NCc2ccccc2)S1` (stereo not shown) [Example 18, N-benzyl-2-(2-imino-4-oxo-1,3-thiazolidin-5-yl)acetamide], the fold induction at 10 µM came to 1.2 and the Ratio was determined as 1.1.
For `N=C1NC(=O)C(CC(=O)NCc2cccc(C(F)(F)F)c2)S1` (stereo not shown) [Example 19, 2-(2-imino-4-oxo-1,3-thiazolidin-5-yl)-N-[3-(trifluoromethyl)benzyl]acetamide] the same measures were 1.1 and 0.9.
The corresponding values for `N=C1NC(=O)C(CC(=O)NCc2ccccc2C(F)(F)F)S1` (stereo not shown) [Example 20, 2-(2-imino-4-oxo-1,3-thiazolidin-5-yl)-N-[2-(trifluoromethyl)benzyl]acetamide] are 1.2 and 1.1.
The corresponding values for `N=C1NC(=O)C(CC(=O)NCc2ccc(Cl)cc2)S1` (stereo not shown) [Example 21, N-(4-chlorobenzyl)-2-(2-imino-4-oxo-1,3-thiazolidin-5-yl)acetamide] are 1.2 and 1.0.
Regarding `N=C1NC(=O)C(CC(=O)NCc2cccc(Cl)c2)S1` (stereo not shown) [Example 22, N-(3-chlorobenzyl)-2-(2-imino-4-oxo-1,3-thiazolidin-5-yl)acetamide], the fold induction at 10 µM is 1.2 and the Ratio is 1.0.
The corresponding values for `N=C1NC(=O)C(CC(=O)NCc2ccccc2Cl)S1` (stereo not shown) [Example 23, N-(2-chlorobenzyl)-2-(2-imino-4-oxo-1,3-thiazolidin-5-yl)acetamide] are 1.2 and 1.0.
For `N=C1NC(=O)C(CC(=O)Nc2cccc(C(N)=O)c2)S1` (stereo not shown) [Example 24, 3-{[(2-imino-4-oxo-1,3-thiazolidin-5-yl)acetyl]amino}benzamide] the same measures were 1.2 and 1.0.
The corresponding values for `CCOC(=O)c1cccc(NC(=O)CC2SC(=N)NC2=O)c1` (stereo not shown) [Example 25, ethyl 3-{[(2-imino-4-oxo-1,3-thiazolidin-5-yl)acetyl]amino}benzoate] are 1.7 and 1.4.
`N=C1NC(=O)C(CC(=O)Nc2cccc(Oc3ccccc3)c2)S1` (stereo not shown) [Example 26, 2-(2-imino-4-oxo-1,3-thiazolidin-5-yl)-N-(3-phenoxyphenyl)acetamide]: the fold induction at 10 µM was 1.5 and the Ratio is 1.4.

The record behind these values is patent publication US7563813B2, “Iminothiazolidinone derivatives as SFRP-1 antagonists” (Wyeth, priority 2005, dated 2009).
